Source: patent US5055459A, “Selective elimination of malignant cells from bone marrow by bis (acyloxy) propylphosphoramidates” (Board of Regents, The University of Texas, priority 1989, dated 1991)
≈ marks a conversion by molar mass, not a printed value. Read-outs that look alike come from different tables or passages of the source.

Key:
[1] = tested on: L1210 lymphatic leukemia cells; experiment: cells; type: cell-based, murine
L1210 leukemia cells [2] = experiment: cells; type: cell-based, murine; conditions: Mus musculus
L1210 leukemia cells [3] = experiment: Growth inhibition of L1210 leukemia cells in vitro by nucleoside analogues (Table 7); type: cell-based, murine; conditions: Mus musculus, growth inhibition by 50%, exposure 96 h, then 72 h drug-free culture
Method: The effectiveness against growth of L1210 cells of 1 these nucleoside analogs was tested and the growth inhibition shown in Table 7.
^a Exponentially growing cells were exposed to varying drug
concentrations for 96 h at 37° C. The cells were then centrifuged,
resuspended, and cultured in drugfree medium for 72 h.
^b The drug concentration that inhibited cell growth by 50% compared
to untreated control cultures.

[4] = tested on: cyclophosphamide-resistant L1210 and P-388 cell-lines; conditions: cited from earlier work
KBM-3/DOX = experiment: cells; type: cell-based, human; conditions: human, kbm-3/dox cells
KBM-3/AMSA = experiment: cells; type: cell-based, human; conditions: human, kbm-3/amsa cells
[5] = tested on: GM-CFC from normal human bone marrow

CC(=O)OC(CCOP(=O)(NCCCl)NCCCl)OC(C)=O [Compound 22-F, 0-(3,3-Diacetatopropyl)-N-(2-chloroethyl)-N-(2chloroethyl)phosphorodiamide]
toxicity to L1210 cells, comparison in words [1]: much more potent than ASTA Z 7557 | IC50 ([1]; Mus musculus, L1210, 72 h, read-out: ED50): 1.7 µg/mL (≈ 4.48 µM)

COc1cccc2c1C(=O)c1c(O)c3c(c(O)c1C2=O)C[C@@](O)(C(=O)CO)C[C@@H]3O[C@H]1C[C@H](NP(=O)(NCCCl)OCCC(OC(C)=O)OC(C)=O)[C@H](O)[C@H](C)O1 (stereo partly drawn) [Compound C-3]
IC50 (L1210 leukemia cells [2]): 21 nM

COc1cccc2c1C(=O)c1c(O)c3c(c(O)c1C2=O)C[C@@](O)(C(C)=O)C[C@@H]3O[C@H]1C[C@H](NP(=O)(NCCCl)OCCC(OC(C)=O)OC(C)=O)[C@H](O)[C@H](C)O1 (stereo partly drawn) [Compound C-4]
IC50 (L1210 leukemia cells [2]): 25 nM

COc1cccc2c1C(=O)c1c(O)c3c(c(O)c1C2=O)C[C@@](O)(C(=O)CO)C[C@@H]3O[C@H]1C[C@H](NP(=O)(NCCCl)OCCC(OC(=O)C(C)(C)C)OC(=O)C(C)(C)C)[C@H](O)[C@H](C)O1 (stereo partly drawn) [Compound C-7]
IC50 (L1210 leukemia cells [2]): 35 nM

COc1cccc2c1C(=O)c1c(O)c3c(c(O)c1C2=O)C[C@@](O)(C(C)=O)C[C@@H]3O[C@H]1C[C@H](NP(=O)(NCCCl)OCCC(OC(=O)C(C)(C)C)OC(=O)C(C)(C)C)[C@H](O)[C@H](C)O1 (stereo partly drawn) [Compound C-8]
IC50 (L1210 leukemia cells [2]): 30 nM

CC(=O)OC(CCOP(N)(=O)OC[C@@H]1CC[C@H](n2ccc(=O)[nH]c2=O)O1)OC(C)=O (stereo partly drawn) [Compound D-1]
IC50 (L1210 leukemia cells [3]): 1400 nM

CC(C)(C)C(=O)OC(CCOP(N)(=O)OC[C@@H]1CC[C@H](n2ccc(=O)[nH]c2=O)O1)OC(=O)C(C)(C)C (stereo partly drawn) [Compound D-2]
IC50 (L1210 leukemia cells [3]): 700 nM

CC(=O)OC(CCOP(N)(=O)OC[C@@H]1CC[C@H](n2cc(C)c(=O)[nH]c2=O)O1)OC(C)=O (stereo partly drawn) [Compound D-3]
IC50 (L1210 leukemia cells [3]): 1300 nM

Cc1cn([C@H]2CC[C@@H](COP(N)(=O)OCCC(OC(=O)C(C)(C)C)OC(=O)C(C)(C)C)O2)c(=O)[nH]c1=O (stereo partly drawn) [Compound D-4]
IC50 (L1210 leukemia cells [3]): 1600 nM

N#CN [cyanamide]
effect on cytotoxicity of 4-hydroperoxycyclophosphamide and ASTA Z 7557 [4]: potentiate the cytotoxicity

CCN(CC)C(=S)S [diethyl dithiocarbamate]
effect on cytotoxicity of 4-hydroperoxycyclophosphamide and ASTA Z 7557 ([4]; cyclophosphamide-resistant L1210 and P-388): potentiate the cytotoxicity

CCN(CC)C(=S)SSC(=S)N(CC)CC [disulfiram]
effect on cytotoxicity of 4-hydroperoxycyclophosphamide and ASTA Z 7557 [4]: potentiate the cytotoxicity | sensitization of resistant L1210 cell-line [4]: rendered drug-sensitive

COc1cccc2c1C(=O)c1c(O)c3c(c(O)c1C2=O)C[C@@](O)(C(=O)CO)C[C@@H]3O[C@H]1C[C@H](N)[C@H](O)[C@H](C)O1 [doxorubicin, reference compound]
resistance of subline to doxorubicin (KBM-3/DOX): 100 fold

CCOP(=O)(CCC=O)c1ccccc1 (stereo not drawn) [ethylphenyl(2-formylethyl) phosphinate]
effect on cytotoxicity of 4-hydroperoxycyclophosphamide and ASTA Z 7557 [4]: potentiate the cytotoxicity

COc1cc(NS(C)(=O)=O)ccc1Nc1c2ccccc2nc2ccccc12 [m-AMSA, 4'-(9-acridinylamino)-3-methanesulfon-m-amisidide, reference compound]
resistance of subline to m-AMSA (KBM-3/AMSA): 130 fold | GM-CFC recovery kinetics / progenitor sparing, in words [5]: nonselective killing of mature (GM-CFC) and primitive (pluripotent) myeloid progenitor cells
